Test results as given in US20240189449A1, “LIPID NANOPARTICLES AND POLYNUCLEOTIDES ENCODING ORNITHINE TRANSCARBAMYLASE FOR THE TREATMENT OF ORNITHINE TRANSCARBAMYLASE DEFICIENCY” (ModernaTX, Inc., priority 2021, published 2024).

Tests used:
Assay type in all cases: in vivo
CD-1 mice [1] = assay: hEPO expression in serum after IV lipid nanoparticles with hEPO mRNA, CD-1 mice; settings: LNP with DSPC, cholesterol, Compound I; for Mean 6 hr hEPO Concentration: serum 6 hours after injection
Experimental: To assess potency of expression and metabolic stability of lipids of the disclosure, hepatocyte protein expression (hEPO) was measured following administration to mice of a nanoparticle of the disclosure.
Lipid nanoparticles including DSPC as a phospholipid, cholesterol as a structural lipid, Compound I as a PEG lipid, an ionizable amino lipid of Formula (II), and an mRNA encoding hEPO were intravenously administered to CD-1 mice. The concentration of hEPO in serum was tested at 6 hours after injection.

mice [2] = assay: Luciferase expression, total whole body flux, mice
Experimental: (§1) To further assess potency of expression and metabolic stability of lipids of the disclosure, expression of luciferase was measured following administration to rodents of a nanoparticle of the disclosure comprising an mRNA containing luciferase.
Lipid nanoparticles including DSPC as a phospholipid, cholesterol as a structural lipid, Compound I as a PEG lipid, an ionizable amino lipid of Formula (II), and an mRNA encoding luciferase were intravenously administered to CD-1 mice and Sprague Dawley rats. […]

mice [3] = assay: Residual lipid levels in the liver at 24 h, mice (luciferase mRNA LNPs)
CD-1 mice [4] = assay: Parent lipid remaining in liver at 24 h, CD-1 mice (hEPO mRNA LNPs); settings: for Approx. Percent Total Dose of Parent Lipid Remaining at 24 h: calculation assumes a 25 g mouse with a 1.5 g liver
Sprague Dawley rats [5] = assay: Parent lipid remaining in liver tissue at 24 h, rats; settings: rat
Sprague Dawley rats [6] = assay: NPI-Luciferase expression, ex vivo liver bioluminescence, Sprague Dawley rats; settings: rat, IV
Experimental: as §1
(§2) Lipid nanoparticles including DSPC as a phospholipid, cholesterol as a structural lipid, Compound I as a PEG lipid, an ionizable amino lipid of Formula (II), and an mRNA encoding luciferase were intravenously administered to CD-1 mice and Sprague Dawley rats. The level of expression was tested via bioluminescence in the liver ex vivo at 6 hours after injection.

CD-1 mice [7] = assay: NPI-Luciferase expression, ex vivo liver bioluminescence, CD-1 mice; settings: mouse, IV
Experimental: as §1, §2

Sprague Dawley rats [8] = assay: hEPO expression in serum after IV lipid nanoparticles with hEPO mRNA, Sprague Dawley rats; settings: serum 6 hours after injection
Experimental: To further assess potency of expression and metabolic stability of lipids of the disclosure, hepatocyte protein expression (hEPO) was measured following administration to rats of a nanoparticle of the disclosure.
Lipid nanoparticles including DSPC as a phospholipid, cholesterol as a structural lipid, Compound I as a PEG lipid, an ionizable amino lipid of Formula (II), and an mRNA encoding hEPO were intravenously administered to Sprague Dawley rats. The concentration of hEPO in serum was tested at 6 hours after injection.

| SMILES | hEPO AUC (CD-1 mice [1]) | Mean 6 hr hEPO Concentration (CD-1 mice [1]) [mIU/mL] | Total Whole Body Flux @ 6 h (mice [2]) [p/s] | % Lipid Remaining @ 24 h (mice [3]) [%] | Parent Lipid Remaining (nmol/g liver tissue) at 24 h (CD-1 mice [4]) [nmol/g liver tissue] | Approx. Percent Total Dose of Parent Lipid Remaining at 24 h (CD-1 mice [4]) | Approx. Percent Total Dose of Parent Lipid Remaining at 24 h (Sprague Dawley rats [5]) [%] | Mean 6 h ex vivo Liver NPI-Luciferase Total Flux (Sprague Dawley rats [6]) [photons/second] | Mean 6 h ex vivo Liver NPI-Luciferase Total Flux (CD-1 mice [7]) [photons/second] | Mean 6 hr hEPO Concentration (Sprague Dawley rats [8]) [mIU/mL] |
| --- | --- | --- | --- | --- | --- | --- | --- | --- | --- | --- |
| CCCCCCCCC(CCCCCCCC)OC(=O)CCCCCCCN(CCO)CCCCCCCC(=O)OCCC(CCCC)CCCCCC (stereo not shown) [Compound 7] | 2.13E+07 | 1355957 | 6.09E+10 | <1 | 0.3 ± 0.2 | 0.2% |  |  |  |  |
| CCCCCCCCC(CCCCCCCC)OC(=O)CCCCCCCN(CCO)CCCCCCCC(=O)OCC(CCC)CCCCCCC (stereo not shown) [Compound 8] |  |  | 3.82E+10 | <1 |  |  |  |  |  |  |
| CCCCCCCCC(CCCCCCCC)OC(=O)CCCCCCCN(CCCCCCCC(=O)OCC(CCC)CCCCCCC)CCCNc1c(NC)c(=O)c1=O (stereo not shown) [Compound 9] |  |  | 1.82E+10 | 68 ± 10 |  |  |  |  |  |  |
| CCCCCCCCC(CCCCCCCC)OC(=O)CCCCCCCN(CCCCCCCC(=O)OCC(CCCC)CCCCCCC)CCCNc1c(NC)c(=O)c1=O (stereo not shown) [Compound 10] |  |  | 4.6E+09 | 67 ± 7 |  |  |  |  |  |  |
| CCCCCCCCC(CCCCCCCC)OC(=O)CCCCCCCN(CCCCCCCC(=O)OCC(CC)CCCCCCC)CCCNc1c(NC)c(=O)c1=O (stereo not shown) [Compound 11] |  |  | 1.04E+10 | 23 ± 6 |  |  |  |  |  |  |
| CCCCCCCCC(CCCCCCCC)OC(=O)CCCCCCCN(CCO)CCCCCCCC(=O)OCCC(CCCCCC)C(C)C (stereo not shown) [Compound 12] |  |  | 2.39E+10 | <1 |  |  |  |  |  |  |
| CCCCCCCCC(CCCCCCCC)OC(=O)CCCCCCCN(CCO)CCCCCCCC(=O)OCCC(CCC)CCCCCC (stereo not shown) [Compound 13] |  |  | 3.77E+10 | <1 |  |  |  |  |  |  |
| CCCCCCCCC(CCCCCCCC)COC(=O)CCCCCN(CCCCCCCC(=O)OC(CC)CCCCCCCC)CCCNc1c(NC)c(=O)c1=O (stereo not shown) [Compound 14] | 4.53E+07 | 2952339 |  |  | 56 ± 6 | 58% | 58 | 1567000000 | 465200000 |  |
| CCCCCCCCC(CCCCCCCC)OC(=O)CCCCCCCN(CCCCCCCC(=O)OCCC(CCC)CCCCCC)CCCNc1c(NC)c(=O)c1=O (stereo not shown) [Compound 18] | 3.17E+07 | 2158772 |  |  | 40 ± 7 | 41% | 41 | 1473333333 | 372800000 |  |
| CCCCCCCCC(CCCCCCCC)OC(=O)CCCCCCCN(CCO)CCCCCCCC(=O)OCCC(CCCCC)CCCCC [Compound 24] | 1.93E+07 | 1160499 |  |  | 3 ± 1 | 2% | 2 | 2020000000 | 240400000 |  |
| CCCCC(CCCC)CCOC(=O)CCCCCCCN(CCCCCCCC(=O)OCCC(CCCC)CCCC)CCCNc1c(NC)c(=O)c1=O [Compound 55] | 1.99E+07 | 1332073 |  |  | 3 ± 0.6 | 3% |  |  |  | 161760 |
| CCCCCC(CCCCC)CCOC(=O)CCCCCCCN(CCCCCCCC(=O)OC(CCCCC)CCCCC)CCCNc1c(NC)c(=O)c1=O [Compound 57] | 1.60E+07 | 1238977 |  |  | 12 ± 1 | 13% |  |  |  |  |
| CCCCCC(CCCCC)CCOC(=O)CCCCCCCN(CCCCCCCC(=O)OC(CCCC)CCCC)CCCNc1c(NC)c(=O)c1=O [Compound 58] | 2.33E+07 | 1347883 |  |  | 15 ± 2 | 15% |  |  |  |  |
| CCCCCCC(CCCCCC)OC(=O)CCCCCCCN(CCCCCCCC(=O)OCCC(CCCC)CCCC)CCCNc1c(NC)c(=O)c1=O [Compound 60] | 1.42E+07 | 1031398 |  |  | 8.5 ± 0.6 | 9 ± 0.8% |  |  |  |  |
| CCCCCC(CCCCC)OC(=O)CCCCCCCN(CCCCCCCC(=O)OCCC(CCCC)CCCC)CCCNc1c(NC)c(=O)c1=O [Compound 61] | 1.44E+07 | 1020791 |  |  | 5.1 ± 0.8 | 6 ± 0.3% |  |  |  | 362569 |
| CCCCC(CCCC)CCOC(=O)CCCCCCCN(CCCCCCCC(=O)OC(CCCC)CCCC)CCCNc1c(NC)c(=O)c1=O [Compound 62] | 6.51E+06 | 475498 |  |  | 1.8 ± 0.6 | 2 ± 0.9% |  |  |  |  |
| CCCCCCCC(CCCCCCC)OC(=O)CCCCCCCN(CCCCCCCC(=O)OCCC(CCC)CCC)CCCNc1c(NC)c(=O)c1=O [Compound 63] | 9.66E+06 | 692334 |  |  | 8.9 ± 2.8 | 9 ± 3%^ |  |  |  |  |
| CCCCCCC(CCCCCC)OC(=O)CCCCCCCN(CCCCCCCC(=O)OCCC(CCC)CCC)CCCNc1c(NC)c(=O)c1=O [Compound 64] | 2.43E+07 | 1760015 |  |  | 4.9 ± 0.9 | 6 ± 0.8% |  |  |  | 161146 |
| CCCCCC(CCCCC)OC(=O)CCCCCCCN(CCCCCCCC(=O)OCCC(CCC)CCC)CCCNc1c(NC)c(=O)c1=O [Compound 65] | 1.02E+07 | 734054 |  |  | 0.9 ± 0.3 | 0.9 ± 0.06% |  |  |  |  |
| CCCCC(CCCC)OC(=O)CCCCCCCN(CCCCCCCC(=O)OCCC(CCC)CCC)CCCNc1c(NC)c(=O)c1=O [Compound 66] | 2.10E+05 | 17801 |  |  | 0.1 ± 0.03 | <1% |  |  |  |  |
